A short description of data set [1]: Drug metabolism in rat hepatocytes assessed as glucuronidation in presence of glutathione and water. Type of data set: ADME, cell-based, Hepatocyte.
A short description of data set [2]: Drug recovery in bile of bile duct cannulated rat. Type of data set: ADME. Particulars: read-out: Drug recovery.
A short description of data set [3]: Toxicity in dog assessed as appearance of red mucous membranes of the gum at 30 mg/kg, po administered as single dose. Particulars: in vivo. Type of data set: organism-based, Canis lupus familiaris.
A short description of data set [4]: Volume of distribution at steady state in dog at 0.363 mg/kg, iv and 0.737 mg/kg, po. Particulars: in vivo, read-out: Vdss. Type of data set: ADME, organism-based, Canis lupus familiaris.
Data set [5] deals with Rattus norvegicus. As to the kind of experiment: Toxicity in Wistar Han rat assessed as increase in liver to body weight ratio at >= 30 mg/kg/day, po administered for 14 days. In kind it is organism-based. The conditions noted are these: in vivo, 336 h.
Data set [6] in a line: Toxicity in po dosed dog assessed as drug tolerance administered as single dose. In kind it is organism-based, Canis lupus familiaris. The conditions noted are these: in vivo.
Data set [7] can be described thus: Toxicity in po dosed dog administered as single dose. In kind it is organism-based, Canis lupus familiaris. Particulars: in vivo.
Data set [8] can be described thus: Toxicity in dog assessed as increase in body temperature at 100 mg/kg, po administered as single dose. In kind it is organism-based, Canis lupus familiaris. Particulars: in vivo.
Data set [9] is described as follows: Octanol-water partition co-efficient, log D of the compound by shake flask method. Type of data set: physicochemical.
Data set [10] in a line: Toxicity in dog assessed as increase in body temperature at 10 mg/kg, po administered as single dose. Type of data set: organism-based, Canis lupus familiaris. The conditions noted are these: in vivo.
In data set [11] the target is T1, Solute carrier family 22 member 6 (Homo sapiens, UniProt Q4U2R8).
T1 sequence (Q4U2R8 whole entry): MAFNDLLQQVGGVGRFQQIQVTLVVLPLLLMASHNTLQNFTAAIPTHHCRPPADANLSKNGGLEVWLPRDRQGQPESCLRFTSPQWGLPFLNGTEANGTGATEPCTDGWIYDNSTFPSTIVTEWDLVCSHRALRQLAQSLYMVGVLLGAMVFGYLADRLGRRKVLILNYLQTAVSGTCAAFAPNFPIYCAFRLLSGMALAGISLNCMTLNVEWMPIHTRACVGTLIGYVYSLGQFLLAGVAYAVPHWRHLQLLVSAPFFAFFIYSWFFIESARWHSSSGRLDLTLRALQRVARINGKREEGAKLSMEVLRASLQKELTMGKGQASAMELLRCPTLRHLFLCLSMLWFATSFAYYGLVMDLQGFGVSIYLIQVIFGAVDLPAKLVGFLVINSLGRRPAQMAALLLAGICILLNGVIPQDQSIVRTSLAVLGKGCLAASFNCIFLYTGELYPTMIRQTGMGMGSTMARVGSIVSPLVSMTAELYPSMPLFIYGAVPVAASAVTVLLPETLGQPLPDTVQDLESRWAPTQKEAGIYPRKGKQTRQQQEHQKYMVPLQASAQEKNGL
The data set is described as follows: Inhibition of OAT1 (unknown origin).

The nature of data set [12]: Unbound clearance in rat at 1 mg/kg, iv and 3 mg/kg, po. Type of data set: ADME, organism-based. Particulars: in vivo.
The target in a further data set is T2, Cytochrome P450 1A2 (Homo sapiens, UniProt P05177).
T2 sequence (P05177 whole entry): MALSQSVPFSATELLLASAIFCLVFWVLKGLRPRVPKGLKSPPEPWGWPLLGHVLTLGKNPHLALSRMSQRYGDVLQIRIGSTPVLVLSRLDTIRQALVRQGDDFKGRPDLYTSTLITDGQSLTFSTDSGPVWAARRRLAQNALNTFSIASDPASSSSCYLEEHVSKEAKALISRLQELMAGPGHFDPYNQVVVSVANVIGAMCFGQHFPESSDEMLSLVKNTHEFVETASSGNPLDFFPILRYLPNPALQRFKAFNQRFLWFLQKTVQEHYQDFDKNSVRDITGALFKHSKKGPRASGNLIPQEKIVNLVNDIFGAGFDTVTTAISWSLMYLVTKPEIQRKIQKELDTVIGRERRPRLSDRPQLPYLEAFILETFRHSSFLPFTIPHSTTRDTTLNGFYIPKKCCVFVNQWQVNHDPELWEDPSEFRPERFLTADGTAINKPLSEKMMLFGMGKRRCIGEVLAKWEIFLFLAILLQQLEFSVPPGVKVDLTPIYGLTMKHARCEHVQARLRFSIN
The data set is described as follows: Inhibition of CYP1A2 (unknown origin). In kind it is ADME.

Data set [13] in a line: Drug metabolism in rat hepatocytes assessed as glucuronidation in presence of glutathione. In kind it is ADME, cell-based, Hepatocyte.
Data set [14] in a line: Toxicity in dog assessed as transient panting at 10 mg/kg, po administered as single dose measured up to 30 hrs post dose. Type of data set: organism-based, Canis lupus familiaris. The conditions noted are these: in vivo.
Data set [15] can be described thus: Toxicity in dog assessed as increase in body temperature at 10 mg/kg, po administered as single dose measured up to 3 days post dose. Particulars: in vivo, 72 h. In kind it is organism-based, Canis lupus familiaris.
Data set [16] can be described thus: Drug metabolism in rat hepatocytes assessed as monooxidation. Type of data set: ADME, cell-based, Hepatocyte.
Data set [17] in a line: Plasma clearance in rat at 1 mg/kg, iv and 3 mg/kg, po. In kind it is ADME, organism-based.
A short description of data set [18]: Drug metabolism in human liver microsomes assessed as monooxidation at phenyl and pyridine moieties. In kind it is ADME.
Data set [19] in a line: Intrinsic clearance in dog liver microsomes. In kind it is ADME, Canis lupus familiaris. Particulars: read-out: CLH.
Data set [20] can be described thus: Toxicity in dog assessed as uncontrollable panting at 30 mg/kg, po administered as single dose. The conditions noted are these: in vivo. Type of data set: organism-based, Canis lupus familiaris.
Data set [21] in a line: Plasma clearance in dog at 0.363 mg/kg, iv and 0.737 mg/kg, po. Type of data set: ADME, organism-based, Canis lupus familiaris.
A short description of data set [22]: Intrinsic clearance in dog hepatocytes assessed per 10^6 cells. Type of data set: ADME, cell-based, Canis lupus familiaris, Hepatocyte.
Data set [23] can be described thus: Toxicity in dog assessed as increase in heart rate at 30 mg/kg, po administered as single dose. In kind it is organism-based, Canis lupus familiaris. Particulars: in vivo.
The subject of data set [24] is Rattus norvegicus. As to the kind of experiment: Toxicity in Wistar Han rat assessed as increase in lymphocyte counts at >= 30 mg/kg/day, po administered for 14 days. In kind it is organism-based. Particulars: in vivo, 336 h.
Data set [25] relates to Rattus norvegicus. The data set is described as follows: Toxicity in Wistar Han rat assessed as increase in liver weight at >= 30 mg/kg/day, po administered for 14 days. The conditions noted are these: in vivo, 336 h. In kind it is organism-based.
A short description of data set [26]: Intrinsic clearance in rat hepatocytes assessed per 10^6 cells. Type of data set: ADME, cell-based, Hepatocyte.
Data set [27] is described as follows: Unbound Cmax in dog at 10 mg/kg, po administered as single dose. Type of data set: ADME, organism-based, Canis lupus familiaris. The conditions noted are these: in vivo.
Data set [28] in a line: Unbound Cmax in dog at 30 mg/kg, po administered as single dose. Type of data set: ADME, organism-based, Canis lupus familiaris. The conditions noted are these: in vivo.
Data set [29] has as its system Rattus norvegicus. As to the kind of experiment: Toxicity in Wistar Han rat at <= 100 mg/kg/day, po administered for 14 days by macroscopic analysis. In kind it is organism-based. The conditions noted are these: in vivo, 336 h.
A short description of data set [30]: Volume of distribution at steady state in dog at 1 mg/kg, iv and 3 mg/kg, po. In kind it is ADME, organism-based, Canis lupus familiaris. The conditions noted are these: in vivo, read-out: Vdss.
In data set [31] the test system is Rattus norvegicus. As to the kind of experiment: Toxicity in Wistar Han rat assessed as moribundity at 300 mg/kg, po administered as single dose. In kind it is organism-based. The conditions noted are these: in vivo.
The nature of data set [32]: Half life in dog at 1 mg/kg, iv and 3 mg/kg, po. Type of data set: ADME, organism-based, Canis lupus familiaris. The conditions noted are these: in vivo.
The subject of data set [33] is Rattus norvegicus. As to the kind of experiment: Toxicity in Wistar Han rat assessed as centrilobular hepatocellular hypertrophy at 100 mg/kg/day, po administered for 14 days. In kind it is organism-based. The conditions noted are these: in vivo, 336 h.
In data set [34] the test system is Rattus norvegicus. As to the kind of experiment: Toxicity in Wistar Han rat assessed as mortality at 300 mg/kg, po administered as single dose. Type of data set: organism-based. Particulars: in vivo.
Data set [35] can be described thus: Unbound Cmax in Wistar Han rat at 100 mg/kg, po […] measured on day 14. The conditions noted are these: in vivo. In kind it is ADME, organism-based.
Data set [36] can be described thus: Plasma clearance in dog at 1 mg/kg, iv and 3 mg/kg, po. In kind it is ADME, organism-based, Canis lupus familiaris.
Data set [37] is described as follows: Average plasma concentration in Wistar Han rat at 100 mg/kg, po administered as single dose measured on day 14. Type of data set: ADME, organism-based. Particulars: in vivo.
Data set [38] is described as follows: Oral bioavailability in dog at 3 mg/kg. Type of data set: ADME, organism-based, Canis lupus familiaris. Particulars: in vivo.

Each structure is given as a SMILES string.

For `O=S(=O)(Nc1ccc(C(F)(F)F)nc1)c1ccccc1C(F)(F)F`, the Drug metabolism result in data set [1], in [13], in data set [16] and in [18] was “Metabolite_Detected” throughout. Besides, the dose excreted in data set [2] was < 1%. In addition, the Activity entry in data set [3] is on record as “Toxic”; in the data set on Rattus norvegicus [5], “Non-Toxic”; in [6], “<= 30 mg kg-1”; in data set [8], “Toxic”; in data set [14] it was “Toxic”; in data set [15] it was “Toxic”. For the same compound, the Activity result in [20] is “Toxic”; in data set [23] it was “Toxic”; in the data set on Rattus norvegicus [24], “Non-Toxic”; in the data set with Rattus norvegicus [25], “Non-Toxic”. For the same compound, the Vd in data set [4] was determined as 0.12 L/kg. In data set [7], this compound displayed an MTD of 100 mg/kg. Besides, in [9], the logD amounted to 1.4. Moreover, the deltaT in data set [10] is < 0.4 °C. In addition, the results for the IC50 (in data set [11]; at Cytochrome P450 1A2) were 12.3 µM and > 30 µM, respectively. Besides, in [12], the CL free was found to be 41 mL/min/kg. The clearance in data set [17] was found to be 0.18 mL/min/kg; in data set [21] it was 0.014 mL/min/kg. Further, the microsomal CLint in data set [19] is < 18 µL/min/mg. Besides, the CLH in data set [22] and in [26] was < 6 µL/min/1e6 cells each time. For the same compound, the fCmax in data set [27] worked out at 1498 nM; in data set [28] it was 3.754 µM.

With `O=S(=O)(Nc1cncc(C(F)(F)F)c1)c1ccccc1C(F)(F)F`, the Activity result in the data set with Rattus norvegicus [29] is listed as “Non-Toxic”; with Rattus norvegicus [31], “Toxic”; with Rattus norvegicus [33], “Non-Toxic”; in the data set on Rattus norvegicus [34], “Toxic”. Also, the Vd in [30] was found to be 0.18 L/kg. The compound further had a half-life in data set [32] of 2.4 h. Also, the logD in data set [9] turned out to be 1.5. In [11], this compound displayed an IC50 of 9.3 µM. In [12], the CL free worked out at 324 mL/min/kg. Moreover, in data set [35], the fCmax is listed as 2153 nM. For the same compound, the figures for the clearance in [17] and in [36] were 0.55 mL/min/kg and 1 mL/min/kg, respectively. Further, the microsomal CLint in data set [19] is < 18 µL/min/mg. Besides, the Cave in [37] stood at 807 nM. In addition, in data set [38], the bioavailability is 145%. Besides, the CLH in data set [22] is < 6 µL/min/1e6 cells; in data set [26], 7 µL/min/1e6 cells.

The values above are taken from ChEMBL document CHEMBL3853265 (Medchemcomm, 2016).
